# Data taken from PubChem BioAssay AID1963423 (Molecular Pharmacology Branch, DTP, NCI, 2024).
# pIC50: −log10 of the molar value.
# System: 439559-082-T-J2-PDC complex spheroid growth
# Test: Anticancer human tumor 439559-082-T-J2-PDC patient-derived colon adenocarcinoma cell line growth inhibition [Asc]
# Settings: for pIC50: curve of first compound; for viability, T/C: stronger effect = lower value
# Method in brief: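 Tumor cells were grown as multicellular spheroids with stromal HUVEC and mesenchymal stem cells and treated singly or in combination. Concentrations fell in half-log steps from the clinical Cmax, or from 10 microM where none was known.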
# 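Further: spheroids exposed to agents for 7 days starting day 3 after seeding.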
# 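Wherever viability, T/C is given: percent of DMSO vehicle control viability with 100% = vehicle.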
smiles,measurement,setting,value
CCN1CCN(Cc2ccc(Nc3ncc(F)c(-c4cc(F)c5nc(C)n(C(C)C)c5c4)n3)nc2)CC1 + Cc1c(S(C)(=O)=O)c(-c2cc(F)cc(N3CCN(c4ccc(NS(=O)(=O)c5ccc(NC(CCN6CCC(C(=O)OCCCP(=O)(O)O)CC6)CSc6ccccc6)c(S(=O)(=O)C(F)(F)F)c5)cc4)CC3)c2)c(-c2ccc(Cl)cc2)n1C(C)C,pIC50,second compound 0.1 µM,< 6.00
same,pIC50,second compound 0.316 µM,< 6.00
same,pIC50,second compound 1 µM,< 6.00
same,pIC50,second compound 3.16 µM,< 6.00
same,pIC50,second compound 10 µM,< 6.00
same,"viability, T/C","second compound 0.1 µM, first compound 0.00316 µM",93.5%
same,"viability, T/C","second compound 0.1 µM, first compound 0.01 µM",107%
same,"viability, T/C","second compound 0.1 µM, first compound 0.0316 µM",94.2%
same,"viability, T/C","second compound 0.1 µM, first compound 0.1 µM",85.3%
same,"viability, T/C","second compound 0.1 µM, first compound 0.316 µM",92.8%
same,"viability, T/C","second compound 0.1 µM, first compound 1 µM",80.5%
same,"viability, T/C","second compound 0.316 µM, first compound 0.00316 µM",101%
same,"viability, T/C","second compound 0.316 µM, first compound 0.01 µM",102%
same,"viability, T/C","second compound 0.316 µM, first compound 0.0316 µM",103%
same,"viability, T/C","second compound 0.316 µM, first compound 0.1 µM",78.5%
same,"viability, T/C","second compound 0.316 µM, first compound 0.316 µM",84.2%
same,"viability, T/C","second compound 0.316 µM, first compound 1 µM",73.4%
same,"viability, T/C","second compound 1 µM, first compound 0.00316 µM",96.5%
same,"viability, T/C","second compound 1 µM, first compound 0.01 µM",93.5%
same,"viability, T/C","second compound 1 µM, first compound 0.0316 µM",94.3%
same,"viability, T/C","second compound 1 µM, first compound 0.1 µM",80.5%
same,"viability, T/C","second compound 1 µM, first compound 0.316 µM",80%
same,"viability, T/C","second compound 1 µM, first compound 1 µM",70%
same,"viability, T/C","second compound 3.16 µM, first compound 0.00316 µM",85.1%
same,"viability, T/C","second compound 3.16 µM, first compound 0.01 µM",92.5%
same,"viability, T/C","second compound 3.16 µM, first compound 0.0316 µM",98.9%
same,"viability, T/C","second compound 3.16 µM, first compound 0.1 µM",72.4%
same,"viability, T/C","second compound 3.16 µM, first compound 0.316 µM",69.4%
same,"viability, T/C","second compound 3.16 µM, first compound 1 µM",68.6%
same,"viability, T/C","second compound 10 µM, first compound 0.00316 µM",82.4%
same,"viability, T/C","second compound 10 µM, first compound 0.01 µM",81.7%
same,"viability, T/C","second compound 10 µM, first compound 0.0316 µM",83.2%
same,"viability, T/C","second compound 10 µM, first compound 0.1 µM",63.5%
same,"viability, T/C","second compound 10 µM, first compound 0.316 µM",61.2%
same,"viability, T/C","second compound 10 µM, first compound 1 µM",50.1%
CNC(C)C(=O)NC1CN(S(=O)(=O)c2cccc(S(=O)(=O)N3CCC4CCC(C(=O)NC(c5ccccc5)c5ccccc5)N4C(=O)C(NC(=O)C(C)NC)C3)c2)CCC2CCC(C(=O)NC(c3ccccc3)c3ccccc3)N2C1=O (stereo not given) + CCN1C(C(=O)NC23CCC(C(=O)O)(CC2)CC3)C(c2cccc(Cl)c2F)C2(C(=O)Nc3cc(Cl)ccc32)C12CCCCC2,pIC50,second compound 0.03 µM,< 6.00
same,pIC50,second compound 0.0949 µM,< 6.00
same,pIC50,second compound 0.3 µM,< 6.00
same,pIC50,second compound 0.949 µM,< 6.00
same,pIC50,second compound 3 µM,< 6.00
same,"viability, T/C","second compound 0.03 µM, first compound 0.00316 µM",104%
same,"viability, T/C","second compound 0.03 µM, first compound 0.01 µM",110%
same,"viability, T/C","second compound 0.03 µM, first compound 0.0316 µM",109%
same,"viability, T/C","second compound 0.03 µM, first compound 0.1 µM",95.5%
same,"viability, T/C","second compound 0.03 µM, first compound 0.316 µM",102%
same,"viability, T/C","second compound 0.03 µM, first compound 1 µM",88%
same,"viability, T/C","second compound 0.0949 µM, first compound 0.00316 µM",109%
same,"viability, T/C","second compound 0.0949 µM, first compound 0.01 µM",110%
same,"viability, T/C","second compound 0.0949 µM, first compound 0.0316 µM",106%
same,"viability, T/C","second compound 0.0949 µM, first compound 0.1 µM",96.8%
same,"viability, T/C","second compound 0.0949 µM, first compound 0.316 µM",93%
same,"viability, T/C","second compound 0.0949 µM, first compound 1 µM",84.6%
same,"viability, T/C","second compound 0.3 µM, first compound 0.00316 µM",109%
same,"viability, T/C","second compound 0.3 µM, first compound 0.01 µM",105%
same,"viability, T/C","second compound 0.3 µM, first compound 0.0316 µM",113%
same,"viability, T/C","second compound 0.3 µM, first compound 0.1 µM",94.8%
same,"viability, T/C","second compound 0.3 µM, first compound 0.316 µM",84.7%
same,"viability, T/C","second compound 0.3 µM, first compound 1 µM",82.5%
same,"viability, T/C","second compound 0.949 µM, first compound 0.00316 µM",103%
same,"viability, T/C","second compound 0.949 µM, first compound 0.01 µM",113%
same,"viability, T/C","second compound 0.949 µM, first compound 0.0316 µM",126%
same,"viability, T/C","second compound 0.949 µM, first compound 0.1 µM",101%
same,"viability, T/C","second compound 0.949 µM, first compound 0.316 µM",92.8%
same,"viability, T/C","second compound 0.949 µM, first compound 1 µM",91.5%
same,"viability, T/C","second compound 3 µM, first compound 0.00316 µM",99.1%
same,"viability, T/C","second compound 3 µM, first compound 0.01 µM",102%
same,"viability, T/C","second compound 3 µM, first compound 0.0316 µM",109%
same,"viability, T/C","second compound 3 µM, first compound 0.1 µM",93.1%
same,"viability, T/C","second compound 3 µM, first compound 0.316 µM",75%
same,"viability, T/C","second compound 3 µM, first compound 1 µM",77.7%
